Here are results for eleven molecules from patent publication US10758534B2 (Vertex Pharmaceuticals Incorporated, priority 2014, dated 2020).

T1 sequence (P13569 with tags, fused parts or gaps DEL508-508): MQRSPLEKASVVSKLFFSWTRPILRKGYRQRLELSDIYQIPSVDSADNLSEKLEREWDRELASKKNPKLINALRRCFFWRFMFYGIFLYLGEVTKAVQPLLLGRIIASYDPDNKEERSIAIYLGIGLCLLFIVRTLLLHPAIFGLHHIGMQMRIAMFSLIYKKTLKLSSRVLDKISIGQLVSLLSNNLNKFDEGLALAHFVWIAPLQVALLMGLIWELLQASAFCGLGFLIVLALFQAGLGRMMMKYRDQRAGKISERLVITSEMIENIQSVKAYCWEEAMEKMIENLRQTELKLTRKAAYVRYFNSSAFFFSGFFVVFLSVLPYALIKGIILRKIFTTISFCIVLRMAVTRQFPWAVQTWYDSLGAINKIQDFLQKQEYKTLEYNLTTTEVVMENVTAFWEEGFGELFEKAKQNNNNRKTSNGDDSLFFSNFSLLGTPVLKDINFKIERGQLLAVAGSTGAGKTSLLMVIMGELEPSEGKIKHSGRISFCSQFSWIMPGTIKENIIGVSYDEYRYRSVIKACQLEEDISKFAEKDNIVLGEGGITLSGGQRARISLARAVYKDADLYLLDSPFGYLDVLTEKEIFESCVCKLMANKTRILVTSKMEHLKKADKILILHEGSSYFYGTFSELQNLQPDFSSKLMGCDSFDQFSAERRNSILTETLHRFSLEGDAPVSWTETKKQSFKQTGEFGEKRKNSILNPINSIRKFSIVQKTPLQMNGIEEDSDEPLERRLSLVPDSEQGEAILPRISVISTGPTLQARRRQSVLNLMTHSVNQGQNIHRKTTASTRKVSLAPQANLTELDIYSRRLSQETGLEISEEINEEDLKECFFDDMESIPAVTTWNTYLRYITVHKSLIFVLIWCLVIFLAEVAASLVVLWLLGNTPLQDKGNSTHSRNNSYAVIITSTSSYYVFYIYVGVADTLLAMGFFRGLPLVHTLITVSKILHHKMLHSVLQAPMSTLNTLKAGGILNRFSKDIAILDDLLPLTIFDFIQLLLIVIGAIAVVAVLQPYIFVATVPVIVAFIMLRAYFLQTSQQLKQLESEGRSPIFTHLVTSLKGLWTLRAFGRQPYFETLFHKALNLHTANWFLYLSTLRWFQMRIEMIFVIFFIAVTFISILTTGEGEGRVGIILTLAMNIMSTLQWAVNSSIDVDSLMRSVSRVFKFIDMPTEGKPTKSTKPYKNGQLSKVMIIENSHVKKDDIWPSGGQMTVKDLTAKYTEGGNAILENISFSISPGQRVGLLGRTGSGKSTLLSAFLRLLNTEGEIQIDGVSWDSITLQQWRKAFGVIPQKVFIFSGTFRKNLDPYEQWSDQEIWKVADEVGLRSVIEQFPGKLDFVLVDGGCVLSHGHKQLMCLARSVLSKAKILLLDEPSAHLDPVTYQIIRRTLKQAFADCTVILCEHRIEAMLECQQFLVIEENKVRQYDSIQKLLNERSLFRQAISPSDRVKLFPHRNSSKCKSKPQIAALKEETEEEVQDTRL

The assay has as its target T1, F508del (Homo sapiens, UniProt P13569, DEL508-508).
T1 construct: expressed in transfected cells
Put plainly: Protocol 1: membrane potential optical assay (FLIPR III, voltage sensing dye), identification of potentiator compounds. It counts as cell-based. To be noted: Table 3, compounds of Table 1. Summed up:
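Mouse NIH 3T3 fibroblasts stably expressing F508del, temperature-corrected at 27 °C for 24 h, pretreated with compound, then loaded with voltage-sensing redistribution dye. Forskolin was added in a single step with a chloride gradient (chloride-free gluconate bath; Bath Solution #1 HEPES pH 7.4). Membrane-potential fluorescence read on FLIPR III.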
`CC(C)COc1cc(F)cc(-c2ccc(C(=O)NS(=O)(=O)c3ccn[nH]3)c(N3CCCC(C)(C)C3)n2)c1` [Compound 1005, 2-(3,3-dimethyl-1-piperidyl)-6-(3-fluoro-5-isobutoxy-phenyl)-N-(1H-pyrazol-5-ylsulfonyl)pyridine-3-carboxamide]: the EC30 entry is reported as “+++ (“+++” means <3 uM)”.

Take `CCC(Oc1nc(-c2cc(F)cc(OCC(C)C)c2)ccc1C(=O)NS(=O)(=O)c1cccc(N)n1)C1CC1(C)C` (centres unmarked) [Compound 1639, N-[(6-amino-2-pyridyl)sulfonyl]-2-[1-(2,2-dimethylcyclopropyl)propoxy]-6-(3-fluoro-5-isobutoxy-phenyl)pyridine-3-carboxamide]: the EC30 entry is “+++ (“+++” means <3 uM)”.

In the case of `CC(C)CCOc1cccc(-c2ccc(C(=O)NS(=O)(=O)c3cccc(N)n3)c(N3CC(C)CC3(C)C)n2)n1` (centres unmarked) [Compound 1135, N-[(6-amino-2-pyridyl)sulfonyl]-6-(6-isopentyloxy-2-pyridyl)-2-(2,2,4-trimethylpyrrolidin-1-yl)pyridine-3-carboxamide], the EC30 result is recorded as “+++ (“+++” means <3 uM)”.

Consider `CC(C)Oc1ccc(-c2ccc(C(=O)NS(=O)(=O)c3cccc(N)n3)c(N3CC[C@@H](C)C3(C)C)n2)cn1` [Compound 992, N-[(6-amino-2-pyridyl)sulfonyl]-6-(6-isopropoxy-3-pyridyl)-2-[(3R)-2,2,3-trimethylpyrrolidin-1-yl]pyridine-3-carboxamide], for which the EC30 entry is reported as “+++ (“+++” means <3 uM)”.

For the molecule `Cc1cccc(-c2ccc(C(=O)NS(=O)(=O)c3cccnc3N)c(N3C[C@@H](C)CC3(C)C)n2)c1` [Compound 1829, N-[(2-amino-3-pyridyl)sulfonyl]-6-(m-tolyl)-2-[(4S)-2,2,4-trimethylpyrrolidin-1-yl]pyridine-3-carboxamide], the EC30 entry is listed as “+++ (“+++” means <3 uM)”.

Regarding `CCOCCOCCOc1ncc(-c2ccc(C(=O)NS(=O)(=O)c3cccnc3N)c(N3C[C@@H](C)CC3(C)C)n2)cc1C` [Compound 1783, N-[(2-amino-3-pyridyl)sulfonyl]-6-[6-[2-(2-ethoxyethoxy)ethoxy]-5-methyl-3-pyridyl]-2-[(4S)-2,2,4-trimethylpyrrolidin-1-yl]pyridine-3-carboxamide], the EC30 result is reported as “+++ (“+++” means <3 uM)”.

Regarding `Cc1cc(C)c(Oc2nc(-c3cc(F)cc(OC(C)C)c3)ccc2C(=O)NS(=O)(=O)c2nccnc2N)c(C)c1` [Compound 989, N-(3-aminopyrazin-2-yl)sulfonyl-6-(3-fluoro-5-isopropoxy-phenyl)-2-(2,4,6-trimethylphenoxy)pyridine-3-carboxamide], the EC30 entry was “+++ (“+++” means <3 uM)”.

With `CC(C)COc1cc(F)cc(-c2ccc(C(=O)NS(=O)(=O)c3cccc(N)n3)c(N3CC4CC(C4)C3)n2)c1` [Compound 1529, N-[(6-amino-2-pyridyl)sulfonyl]-2-(3-azabicyclo[3.1.1]heptan-3-yl)-6-(3-fluoro-5-isobutoxy-phenyl)pyridine-3-carboxamide], the EC30 entry was “+++ (“+++” means <3 uM)”.

Turning to `CCOc1cccc2c1CN(Cc1c(C)cc(C)cc1C)C2(C)C(=O)NS(=O)(=O)c1ccccc1` (centres unmarked) [Compound 1539, N-(benzenesulfonyl)-4-ethoxy-1-methyl-2-[(2,4,6-trimethylphenyl)methyl]isoindoline-1-carboxamide], the EC30 entry is “+++ (“+++” means <3 uM)”.

On to `CC(C)COc1cccc(-c2ccc(C(=O)NS(=O)(=O)c3cccc(N)n3)c(N3C[C@@H](C)CC3(C)C)n2)c1` [Compound 1969, N-[(6-amino-2-pyridyl)sulfonyl]-6-(3-isobutoxyphenyl)-2-[(4S)-2,2,4-trimethylpyrrolidin-1-yl]pyridine-3-carboxamide], for which the EC30 entry is “+++ (“+++” means <3 uM)”.

Consider `CCOc1cccc2c1CN(Cc1c(C)cc(C)cc1C)C2(C)C(=O)NS(=O)(=O)c1cccnc1` (centres unmarked) [Compound 1669, 4-ethoxy-1-methyl-N-(3-pyridylsulfonyl)-2-[(2,4,6-trimethylphenyl)methyl]isoindoline-1-carboxamide], for which the EC30 result was “+++ (“+++” means <3 uM)”.
